Assay results taken from PMC10539439 (Pharmacological Reports, 2023).
“And” between values parts separate entries of the source, which are not always exact repeats. Identical values can stand only once.

Test: Blood pressure of anaesthetized normotensive rats
Type: in vivo, rat
Method: Eighteen normotensive rats were anaesthetized with thiopental (70 mg/kg) by ip injection. The left carotid artery was cannulated with tubing filled with heparin solution in saline to facilitate pressure measurements using Apparatus PowerLab 4/35 (ADInstruments, Australia). Blood pressure was measured: before ip administration of 4-OH-Guanabenz at the doses of 2 or 5 or 10 mg/kg b.w. or water – time 0 min (control pressure) and continuously during the next 60 min.

[1] = 2 mg/kg, time 0, individual rats 1-6
[2] = 2 mg/kg, time 5, individual rats 1-6
[3] = 2 mg/kg, time 10, individual rats 1-6
[4] = 2 mg/kg, time 15, individual rats 1-6
[5] = 2 mg/kg, time 20, individual rats 1-6
[6] = 2 mg/kg, time 30, individual rats 1-6
[7] = 2 mg/kg, time 40, individual rats 1-6
[8] = 2 mg/kg, time 50, individual rats 1-6
[9] = 2 mg/kg, time 60, individual rats 1-6
[10] = 5 mg/kg, time 0, individual rats 1-6
[11] = 5 mg/kg, time 5, individual rats 1-6
[12] = 5 mg/kg, time 10, individual rats 1-6
[13] = 5 mg/kg, time 15, individual rats 1-6
[14] = 5 mg/kg, time 20, individual rats 1-6
[15] = 5 mg/kg, time 30, individual rats 1-6
[16] = 5 mg/kg, time 40, individual rats 1-6
[17] = 5 mg/kg, time 50, individual rats 1-6
[18] = 5 mg/kg, time 60, individual rats 1-6
[19] = 10 mg/kg, time not printed (1st of 9 lines), individual rats 1-6
[20] = 10 mg/kg, time not printed (2nd of 9 lines), individual rats 1-6
[21] = 10 mg/kg, time not printed (3rd of 9 lines), individual rats 1-6
[22] = 10 mg/kg, time not printed (4th of 9 lines), individual rats 1-6
[23] = 10 mg/kg, time not printed (5th of 9 lines), individual rats 1-6
[24] = 10 mg/kg, time not printed (6th of 9 lines), individual rats 1-6
[25] = 10 mg/kg, time not printed (7th of 9 lines), individual rats 1-6
[26] = 10 mg/kg, time not printed (8th of 9 lines), individual rats 1-6
[27] = 10 mg/kg, time not printed (9th of 9 lines), individual rats 1-6

SMILES: N=C(N)N/N=C/c1c(Cl)cc(O)cc1Cl [4HOGuanabenz]
- diastolic pressure [1]: 104 mmHg and 92 mmHg and 99 mmHg and 108 mmHg and 82 mmHg and 91 mmHg
- systolic pressure [1]: 135 mmHg and 127 mmHg and 134 mmHg and 140 mmHg and 114 mmHg and 116 mmHg
- diastolic pressure [2]: 110 mmHg and 93 mmHg (2×) and 102 mmHg and 104 mmHg and 89 mmHg
- systolic pressure [2]: 140 mmHg and 125 mmHg and 136 mmHg and 137 mmHg and 119 mmHg and 116 mmHg
- diastolic pressure [3]: 105 mmHg and 88 mmHg (2×) and 96 mmHg and 99 mmHg and 92 mmHg
- systolic pressure [3]: 134 mmHg and 120 mmHg and 130 mmHg (2×) and 119 mmHg and 116 mmHg
- diastolic pressure [4]: 103 mmHg and 86 mmHg (2×) and 94 mmHg and 99 mmHg and 89 mmHg
- systolic pressure [4]: 133 mmHg and 117 mmHg and 128 mmHg and 129 mmHg and 115 mmHg and 114 mmHg
- diastolic pressure [5]: 99 mmHg and 84 mmHg and 92 mmHg and 96 mmHg and 86 mmHg and 85 mmHg
- systolic pressure [5]: 128 mmHg and 115 mmHg and 124 mmHg and 125 mmHg and 112 mmHg and 111 mmHg
- diastolic pressure [6]: 96 mmHg and 85 mmHg and 91 mmHg and 94 mmHg and 82 mmHg and 86 mmHg
- systolic pressure [6]: 125 mmHg and 111 mmHg and 120 mmHg and 121 mmHg and 106 mmHg and 107 mmHg
- diastolic pressure [7]: 101 mmHg and 86 mmHg and 90 mmHg and 93 mmHg and 79 mmHg and 85 mmHg
- systolic pressure [7]: 131 mmHg and 116 mmHg and 119 mmHg (2×) and 104 mmHg and 105 mmHg
- diastolic pressure [8]: 99 mmHg and 83 mmHg and 90 mmHg and 95 mmHg and 76 mmHg and 85 mmHg
- systolic pressure [8]: 129 mmHg and 110 mmHg and 116 mmHg and 124 mmHg and 101 mmHg and 104 mmHg
- diastolic pressure [9]: 96 mmHg (2×) and 83 mmHg and 90 mmHg and 73 mmHg and 85 mmHg
- systolic pressure [9]: 125 mmHg and 111 mmHg and 118 mmHg and 122 mmHg and 98 mmHg and 103 mmHg
- diastolic pressure [10]: 73 mmHg and 104 mmHg and 91 mmHg and 101 mmHg and 95 mmHg and 99 mmHg
- systolic pressure [10]: 115 mmHg and 133 mmHg and 114 mmHg and 135 mmHg and 122 mmHg and 131 mmHg
- diastolic pressure [11]: 71 mmHg and 106 mmHg and 112 mmHg and 113 mmHg and 100 mmHg and 108 mmHg
- systolic pressure [11]: 105 mmHg and 136 mmHg and 150 mmHg and 144 mmHg and 133 mmHg and 145 mmHg
- diastolic pressure [12]: 63 mmHg and 92 mmHg and 98 mmHg (2×) and 101 mmHg and 90 mmHg
- systolic pressure [12]: 97 mmHg and 121 mmHg and 129 mmHg and 132 mmHg and 120 mmHg and 130 mmHg
- diastolic pressure [13]: 62 mmHg and 89 mmHg and 87 mmHg and 95 mmHg and 83 mmHg and 91 mmHg
- systolic pressure [13]: 94 mmHg and 117 mmHg and 115 mmHg and 125 mmHg and 110 mmHg and 121 mmHg
- diastolic pressure [14]: 61 mmHg and 89 mmHg and 85 mmHg and 95 mmHg and 79 mmHg and 91 mmHg
- systolic pressure [14]: 93 mmHg and 115 mmHg and 109 mmHg and 124 mmHg and 105 mmHg and 117 mmHg
- diastolic pressure [15]: 63 mmHg and 90 mmHg and 86 mmHg and 93 mmHg (2×) and 77 mmHg
- systolic pressure [15]: 92 mmHg and 117 mmHg and 108 mmHg and 122 mmHg and 103 mmHg and 121 mmHg
- diastolic pressure [16]: 64 mmHg and 87 mmHg and 89 mmHg and 98 mmHg and 78 mmHg and 94 mmHg
- systolic pressure [16]: 92 mmHg and 111 mmHg and 109 mmHg and 127 mmHg and 107 mmHg and 119 mmHg
- diastolic pressure [17]: 65 mmHg and 87 mmHg and 89 mmHg and 91 mmHg and 78 mmHg and 96 mmHg
- systolic pressure [17]: 91 mmHg and 112 mmHg and 110 mmHg and 115 mmHg and 102 mmHg and 124 mmHg
- diastolic pressure [18]: 67 mmHg and 88 mmHg and 84 mmHg and 91 mmHg and 83 mmHg and 93 mmHg
- systolic pressure [18]: 92 mmHg and 112 mmHg and 104 mmHg and 113 mmHg and 111 mmHg and 118 mmHg
- diastolic pressure [19]: 75 mmHg and 81 mmHg and 116 mmHg and 86 mmHg and 114 mmHg and 107 mmHg
- systolic pressure [19]: 113 mmHg and 125 mmHg and 158 mmHg and 100 mmHg and 145 mmHg and 140 mmHg
- diastolic pressure [20]: 95 mmHg and 98 mmHg and 122 mmHg and 99 mmHg and 117 mmHg and 109 mmHg
- systolic pressure [20]: 125 mmHg and 126 mmHg and 177 mmHg and 111 mmHg and 164 mmHg and 139 mmHg
- diastolic pressure [21]: 89 mmHg and 95 mmHg and 109 mmHg and 87 mmHg and 111 mmHg and 107 mmHg
- systolic pressure [21]: 115 mmHg and 124 mmHg and 150 mmHg and 101 mmHg and 151 mmHg and 134 mmHg
- diastolic pressure [22]: 86 mmHg and 95 mmHg and 106 mmHg and 84 mmHg and 107 mmHg and 103 mmHg
- systolic pressure [22]: 112 mmHg and 127 mmHg and 135 mmHg and 96 mmHg and 142 mmHg and 131 mmHg
- diastolic pressure [23]: 84 mmHg (2×) and 92 mmHg and 108 mmHg and 103 mmHg (2×)
- systolic pressure [23]: 110 mmHg and 121 mmHg and 133 mmHg and 95 mmHg and 135 mmHg and 129 mmHg
- diastolic pressure [24]: 83 mmHg and 91 mmHg and 105 mmHg and 81 mmHg and 101 mmHg (2×)
- systolic pressure [24]: 108 mmHg and 123 mmHg and 135 mmHg and 91 mmHg and 132 mmHg and 127 mmHg
- diastolic pressure [25]: 82 mmHg and 88 mmHg and 96 mmHg and 80 mmHg and 99 mmHg and 101 mmHg
- systolic pressure [25]: 107 mmHg and 116 mmHg and 126 mmHg and 90 mmHg and 130 mmHg and 124 mmHg
- diastolic pressure [26]: 84 mmHg and 90 mmHg and 106 mmHg and 78 mmHg and 98 mmHg and 97 mmHg
- systolic pressure [26]: 107 mmHg and 121 mmHg and 134 mmHg and 87 mmHg and 129 mmHg and 122 mmHg
- diastolic pressure [27]: 83 mmHg and 92 mmHg and 99 mmHg and 78 mmHg and 101 mmHg and 98 mmHg
- systolic pressure [27]: 107 mmHg and 122 mmHg (2×) and 130 mmHg and 86 mmHg and 131 mmHg
